Read-outs that look alike come from different tables or passages of the source.

In test [1] the test system is THP1 cells. Put plainly: MTS cell viability assay. It counts as cell-based. As to conditions: THP1, 72 h. The procedure:
(§1) Multiple leukemic and solid tumor cancer cell lines with high or low/no SALL4 expression (FIG. 10A) were chosen to test the biological effect(s) of the wild type peptide. Wild type or scrambled peptide was delivered into tumor cells at various concentrations, and their effects on cells were evaluated 72 hours post-treatment by the MTS cell viability assay. […] The effect of wild type peptide is SALL4-specific, as it had no effect on KBM5, an AML cell line with undetectable endogenous SALL4 expression. We were surprised to see that the wild type peptide had no effect on a high SALL4-expressing endometrioid cancer cell line, AN3CA. This prompted checking whether PTEN, a gene repressed by SALL4 through its interaction with NuRD 27, was present in this cell line. According to the model herein, the function of wild type peptide requires both the expression of SALL4 and intact SALL4 downstream target genes, such as PTEN. In tumor cells with PTEN deletion, even though wild type peptide could compete with endogenous SALL4 in interacting with the HDAC complex, an anti-proliferative effect might not be observed. Therefore, expression of PTEN was evaluated in AN3CA cells along with other cell lines. While PTEN protein was present in all the other cell lines, it was absent in AN3CA cells (FIG. 10C), with reported deletion mutation of the gene in this cell line 40,41. […] Furthermore, the anti-proliferative effect also required certain downstream targets, such as PTEN.
(§2) To further test whether the effect of wild type peptide on tumor cells is related to PTEN, a PTEN inhibitor (SF1670) was used (Li et al., Blood, 117:6702-6713). […] As a control for the specificity of SALL4, KBM5, a non-SALL4-expressing cell line was also treated with PTEN inhibitor.
On the technique in general: Formazan colour is commonly taken as a measure of viable cells.

Test [2] concerns KBM5 cells. Put plainly: MTS cell viability assay. It counts as cell-based. The settings on record: KBM5 (no SALL4), 72 h. How it is done: as §1, §2
The target of test [3] is T1, HDAC complex (Homo sapiens, UniProt Q09028).
T1 construct: endogenous in cells; host or cells: SNU-398 nuclear extract
Briefly: Fluorescent polarization competitive binding in SNU-398 nuclear extracts. As to conditions: unlabeled peptide competing with FITC-labeled peptide. The procedure: Below are the amino acid sequences of the peptides used in this study. In the mutant peptide (mut), Lys 5 is replaced with an alanine residue. […] In the first lane marked “Input”, 10% of the extracts were subjected to western blot analysis without immunoprecipitation. […] Extracts were subsequently immunoprecipitated with anti-FITC antibody and the complexes pulled down were subjected to an HDAC activity assay as described in the methods. TSA was added at a concentration of 100 nM. Input is the sample in which 10% of the extract was assayed for HDAC activity without the immunoprecipitation step. […] Competitive binding of nonlabeled wild type or scrambled peptides was measured by fluorescent polarization. […] The fluorescent polarization (y axis) is decreased if the FITC-labeled peptide is displaced from a larger complex.
Next tested was the binding affinity of the wild type and scrambled peptides to the HDAC complex. For this, Fluorescent Polarization (FP), a technology based on molecular movement and rotation in which fluorescent molecules are excited with polarized light, was used. If the fluorescent molecules are part of a large complex, they rotate less and the emitted light has high polarity. In contrast, smaller molecules rotate faster and have low polarity (“depolarized”). […] Using this approach, FITC-labeled wild type or scrambled peptides were first mixed with nuclear extracts from SNU-398 cells. Serial dilutions of unlabeled wild type or scrambled peptides were then added as competitors respectively, and measured by FP assay.

In test [4] the test system is HDAC. Put plainly: HDAC activity assay of peptide pull-down complex (SNU-398 nuclear extracts). Type of test: biochemical, human. As to conditions: compared to IgG control. How it is done:
Assay was performed with the Fluorescent HDAC Assay Kit (Active Motif) having the following modifications: Following the pull down described in Western Blotting section the proteins bound to the beads were eluted in buffer containing 20 mM HEPES (pH 7.5) 350 mM NaCl, 20% glycerol, 1% Igepal CA-630, 1 mM MgCl2, 5 mM DTT and Protease inhibitors (Sigma). The eluates were used as an HDAC enzyme source in an enzymatic reaction for 2 h at 37 C. The HDAC reactions were performed twice on various samples, and each time in triplicate.
Next tested was whether this wt 12-AA could compete with SALL4 in interacting with NuRD. A hepatocellular carcinoma cell line SNU-398 with abundant SALL4 expression was chosen for the following groups of experiences. Whether the wt 12-AA or its control (Mut and Scr) can bind to HDAC1 and HDAC2, the two NuRD components, was first evaluated. […] The histone deacetylase activity of the peptide pull-down complex was then measured using a Fluorescent Assay kit (Active Motif) (FIG. 1D). […]
First evaluated was whether the wild type peptide or the mutant or scrambled controls could bind to HDAC1 and HDAC2, which comprise part of the NuRD complex 38. […] To test this possibility, the histone deacetylase activity of the peptide pull-down complex was measured using a fluorescent assay kit (FIG. 8C). […]

T1 sequence (Q09028 whole entry, one chain of several): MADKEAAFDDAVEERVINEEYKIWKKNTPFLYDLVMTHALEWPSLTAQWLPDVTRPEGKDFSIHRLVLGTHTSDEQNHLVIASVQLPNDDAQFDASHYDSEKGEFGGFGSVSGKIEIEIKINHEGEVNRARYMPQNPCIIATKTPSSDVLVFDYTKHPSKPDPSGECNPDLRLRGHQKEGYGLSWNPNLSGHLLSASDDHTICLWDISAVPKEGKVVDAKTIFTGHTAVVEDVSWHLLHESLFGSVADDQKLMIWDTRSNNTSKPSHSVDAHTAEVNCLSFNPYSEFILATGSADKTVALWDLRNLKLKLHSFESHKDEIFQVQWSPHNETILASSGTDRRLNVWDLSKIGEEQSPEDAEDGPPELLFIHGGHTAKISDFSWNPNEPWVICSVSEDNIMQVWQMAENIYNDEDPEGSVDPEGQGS

The IC50 is the concentration needed to halve the response being measured. “Scr peptide: same 12 amino acids as the wt peptide, but in a scrambled sequence; negative control (SRMRQKIHPKIQ) [reference compound]”: the cell viability entry in test [1] was “remained unaffected”; in test [2] it was “no change in cell viability”. Further, the IC50 result in test [3] was “could not be calculated due to the lack of binding activity”. For the same substance, the “HDAC activity of peptide pull-down complex” value in test [4] is given as “no HDAC activity”.
On to “H-MSRRKQAKPQHI-OH [wt peptide, MSRRKQAKPQHI]”, for which the results for the cell viability entry in test [1], in test [2] (listed as wild type) and in test [2] (listed as wild type peptide) were “decreased cell viability”, “no change in cell viability” and “had no effect”, respectively. Moreover, in test [3] (read-out: IC50), the IC50 was 5 µM. In test [4], the “HDAC activity of peptide pull-down complex” value is listed as “the most HDAC activity”.

Source of the values: patent US9365851B2, “Spalt-like transcription factor 4 (SALL4) and uses thereof” (National University of Singapore, priority 2011, dated 2016).
